Source: paper PMC8153904 (ACS Omega, 2021)
“Also recorded” adds a separate entry of the source.

Key:
[1] = Cytotoxicity assay; format: cell-based, hamster; settings: hamster, BHK-21 cells, CC50, BHK-21 cells, 24 h, MTT
[2] = test system: BHK-21 cells; test: Cytotoxicity assay; format: cell-based, hamster; settings: for cytotoxic effect over the tested concentrations: concentrations of 1 up to 100 μM, mixtures of four stereoisomers
[3] = test system: CHIKV-NanoLuc; test: Antiviral activity assay, CHIKV-NanoLuc at low MOI in BHK-21 cells; format: cell-based, Chikungunya virus; settings: for EC50: Chikungunya virus, BHK-21, 16 h; for viral infection at 100 μM / concentration at which the inhibitory effect appeared: mixtures of four stereoisomers; for concentration at which the inhibitory effect appeared: tested at 1 up to 100 μM

Row | SMILES | CC50 at 24 h [1] [µM] | concentration at which cytotoxicity appeared [2] | EC50 [3] [µM] | also measured
1 | Cc1cc(C)cc([C@@H]2C[C@H]2C(=O)NC(C(N)=O)c2ccc(C)c(C)c2)c1 (stereo partly drawn) [D27] | < 0.1 | 0.1 µM | – | cytotoxic effect over the tested concentrations [2]: toxic at all concentrations
2 | Cc1cc(C)cc([C@@H]2C[C@H]2C(=O)NC(C(N)=O)c2ccc(C)c(C(F)(F)F)c2)c1 (stereo partly drawn) [D119] | > 100 | – | 32 | –
3 | Cc1cc(F)cc([C@@H]2C[C@H]2C(=O)NC(C(N)=O)c2ccc(C)c(C(F)(F)F)c2)c1 (stereo partly drawn) [D127] | > 100 | more than 100 μM | 29.6 | –
4 | Cc1cc(C)cc([C@@H]2C[C@H]2C(=O)NC(C(=O)NCc2ccccc2)c2ccc(C)c(C)c2)c1 (stereo partly drawn) [D160] | > 100 | – | 10.5 | viral infection at 100 μM ([3]; BHK-21 cells): almost completely inhibited; concentration at which the inhibitory effect appeared ([3]; BHK-21 cells): 10 µM; cytotoxic effect over the tested concentrations [2]: no cytotoxic effect
5 | Cc1cc(C)cc([C@@H]2C[C@H]2C(=O)NC(C(=O)NC(C)(C)C)c2ccc(C)c(C)c2)c1 (stereo partly drawn) [D161] | > 100 | – | 13.9 | viral infection at 100 μM ([3]; BHK-21 cells): almost completely inhibited; concentration at which the inhibitory effect appeared ([3]; BHK-21 cells): 10 µM; cytotoxicity effect at 100 μM ([2]; 100 μM, mixture of four stereoisomers): moderate cytotoxicity effect; also recorded: moderate cytotoxic effect
6 | Cc1cc(C)cc([C@@H]2C[C@H]2C(=O)NC(C(=O)NC2CC2)c2ccc(C)c(C)c2)c1 (stereo partly drawn) [D163] | – | more than 10 μM | – | antiviral activity at the maximum nontoxic concentration ([3]; BHK-21 cells, CHIKV-NanoLuc): no antiviral activity
7 | Cc1cc(C)cc([C@@H]2C[C@H]2C(=O)NC(C(=O)NC2CCCC2)c2ccc(C)c(C)c2)c1 (stereo partly drawn) [D164] | > 100 | – | 50.5 | –
8 | COc1ccc(CNC(=O)C(NC(=O)[C@@H]2C[C@H]2c2cc(C)cc(F)c2)c2ccc(C)c(C(F)(F)F)c2)c(OC)c1 (stereo partly drawn) [D166] | > 100 | – | – | antiviral (anti-CHIKV) activity, in words ([3]; BHK-21 cells, CHIKV-NanoLuc, low MOI): complete loss of the activity
